{"source": "patent US5912266A", "about": "“Beta2 integrin cell adhesion molecule inhibitors” (American Home Products Corporation, priority 1997, dated 1999)", "type_in_all_cases": "cell-based, human", "key": {"[1]": {"tested_on": "U937 cells", "test": "MTT cytotoxicity assay, U937 cells", "conditions": "for Average Optical Density / Optical Density: U937, 30 min.; for Optical Density: single well, 580 nm", "from_the_text": "(§1) This experiment describes the affect of asperlin on cellular respiration (mitochondrial activity) by measuring the reduction of the tetrazolium salt MTT to formazan crystals (Moseman, et al). This assay served as a control to ensure that the decrease in the fluorescence observed in Example I, Table I, was not the result of the fluorescent dye leaking from the cells due to disruption of the cell membrane. To address this issue, the mitochondrial activity of β2 and β1 integrin expressing cells in the presence of asperlin was quantitated using a commercially available MTT cytotoxicity kit (Promega No. G4100).\n(§2) HL60 and U937 cells were purchased from the American Type Culture Collection (ATCC) and maintained in RPMI 1640 culture media containing 10% heat inactivated fetal bovine serum (refer to Example I, materials). HL60 cells were used between passages 20 and 30. HL60 cells were stimulated by a four day exposure to DMSO, as described in Example I, materials. Falcon round bottom tissue culture plates (No. 3077) were used for the experiment. All remaining reagents were supplied in Promega's MTT cytotoxicity kit (Catalog No. G4100).\n(§3) The assay procedure described in the Promega MTT kit was used with the following changes.\n(§4) Asperlin was solubilized in 100% DMSO at a concentration of 50 mg/ml. The 50 mg/ml asperlin stock was diluted to 400 μg/ml with culture media containing 5% fetal bovine serum (FBS). This solution was further diluted to 80 and 20 μg/ml with culture media supplemented with 5% FBS plus 2% DMSO. 50 μl of the 20 and 80 μg/ml asperlin solutions were added to wells of a sterile, round bottom 96 well assay plate. Control wells received 50 μl of culture media containing 5% FBS plus 2% DMSO. Duplicate assay wells were prepared such that U937 and HL60 cells could be evaluated on the same plate. The cell density of β1 integrin expressing U937, and β2 integrin expressing HL60 cell cultures were determined using a hemacytometer.\n(§5) Cells were harvested by centrifuging for 5 minutes at 1000 rpm, room temperature, in a Sorvall RT600 bench-top centrifuge. The HL60 cell pellet was resuspended in fresh culture media at a concentration of 5×10^6 cells/ml. The U937 cell pellet was resuspended in fresh culture media at a concentration of 2.5×10^6 cells/ml. 2.5×10^5 β2 integrin expressing HL60 cells, contained in 50 μl, were added to wells of the assay plate using a multichannel pipettor. In duplicate assay wells, 1.25×10^5 β1 integrin expressing U937 cells, contained in 50 μl, were added to wells of the assay plate using a multichannel pipettor. Assay plates were incubated for either 30 minutes, 60 minutes, or 4 hours in a 37° C. 5% CO2, humidified incubator.\n(§6) At the appropriate time point, 15 μl of MTT reagent, supplied in the Promega assay kit, was added to each well using a multichannel pipettor. Assay plates were incubated in the 37° C. incubator, as just described, for two hours. The MTT reduction reaction was quenched, and the visible formazan crystals were solubilized by adding exactly 100 μl of Promega's solubilization buffer to each well. Assay plates were incubated for at least 18 hours in the same 37° C. incubator just described to solubilize the formazan reagent. Assay plates were removed from the incubator and allowed to cool to room temperature. The optical density (OD) of each well of the assay plate was determined using a microtiter plate reader (Flow Labs) set at a wavelength of 580 nm with a correction wavelength of 630 nm.\n(§7) Replicate sample ODs were average. The percentage of inhibition of cellular respiration (mitochondrial activity) by asperlin was quantitated by the following equation:\n(§8) % Inhibition=(1-(Sample OD.div.Average Control OD))×100"}, "[2]": {"test": "MTT cytotoxicity assay, U937 cells", "conditions": "human, u937 cells, U937, 30 min., read-out: % Inhibition MTT Reduction", "from_the_text": "as §1, §2, §3, §4, §5, §6, §7, §8"}, "[3]": {"tested_on": "LFA-1", "test": "β2 integrin/ICAM-1 homotypic (cell:cell) binding of 8866 cells", "from_the_text": "The following experiment describes the inhibition of homotypic (cell:cell) binding of β2 and ICAM-1 expressing cells by asperlin. 8866 cells, a human B-cell line, were supplied by Athena Neurosciences (San Francisco, Calif.). These cells constitutively express both the β2 integrin referred to as LFA-1, and ICAM-1 on the cell surface. In culture, 8866 cells spontaneously bind, or clump together, as a result of β2 integrin binding to ICAM-1.\n8866 cells were maintained in RPMI 1640 culture media (refer to Example I) supplemented with […] HEPES buffer (Gibco No. 15630-080). Cells were subcultured when the cell density was approximately 1×10^6 cells/ml. […]\n8866 cells were harvested by centrifuging 5 minutes, at 1000 rpm, room temperature, in a Sorvall RT6000 centrifuge. The cell pellet was resuspended in culture media and cells were counted using a hemacytometer. […]\nAsperlin was solubilized in 100% DMSO at a concentration of 20 mg/ml, 10 mg/ml, 5 mg/ml, and 2.5 mg/ml. […] The progression of homotypic binding was monitored by microscopic observations after 1 and 2 hours of incubation.\nInhibition β2 integrin dependent homotypic binding to ICAM-1 by asperlin was photographically recorded using a Nikon 35 mm camera attached to a Nikon Diaphot 300 inverted microscope (filter setting NCBII, objective 10×, and light setting of photo)."}}, "note": "Values joined by “and” are separate entries in the source; they are usually repeats but may differ in a detail not shown here. Identical values can stand only once. Like-named read-outs stand apart in the source and are kept apart here.", "data": [{"smiles": "CC(=O)OC1C=CC(=O)OC1C1OC1C", "note": "[Asperlin, 6,7-Anhydro-2,3,8-trideoxy-D-galacto-oct-2-enoic acidδ-lactone 4-acetate]", "values": [{"measurement": "Average Optical Density", "setting": "[1]; Asperlin 10 μg/mL", "result": 1.532}, {"measurement": "Optical Density", "setting": "[1]; Asperlin 10 μg/mL", "result": "1.410 and 1.601 and 1.584"}, {"measurement": "Average Optical Density", "setting": "[1]; Asperlin 40 μg/mL", "result": 1.386}, {"measurement": "Optical Density", "setting": "[1]; Asperlin 40 μg/mL", "result": "1.362 and 1.352 and 1.391"}, {"measurement": "Cytotoxicity (in words)", "setting": "[1]; β1 integrin expressing U937 cells", "result": "not cytotoxic"}, {"measurement": "cytotoxicity at 0.5 h", "setting": "[2]; Asperlin 10 μg/mL", "result": 0, "unit": "%"}, {"measurement": "cytotoxicity at 0.5 h", "setting": "[2]; Asperlin 40 μg/mL", "result": 11, "unit": "%"}, {"measurement": "Inhibition of 8866 cell homotypic binding, visual inspection (in words)", "setting": "[3]; after 1 hour of incubation", "result": "inhibit cell--cell binding in a dose dependent manner"}, {"measurement": "Inhibition of 8866 cell homotypic binding, visual inspection (in words)", "setting": "[3]; after 2 hours of incubation", "result": "inhibited 8866, β2 integrin mediated homotypic binding to ICAM-1 in a dose dependent manner"}]}]}
